Source: patent US20250352514A1, “SALT FORMS OF BIS(3-(2-(DIMETHYLAMINO)ETHYL)-1 H-INDOL-4-YL) 3,3'¬OXYDIPROPIONATE” (priority 2024, published 2025)

Assay: Initial polymorphism assessment by slurrying in 12 solvents at room temperature, XRPD
Type: physicochemical
Settings: shaken at room temperature 3-4 days
From the text: The vials were capped, sealed with Parafilm®, and then covered with foil. The experiments were shaken at room temperature for 4 days. After 4 days all the experiments had remained as slurries apart from the experiment in water. Portions of solid were removed from each one and analyzed by XRPD.
The vials were capped, sealed with Parafilm® and then covered with foil. The experiments were shaken at room temperature for 3 days. After 3 days all the experiments had remained as slurries. Portions were removed from each one and analyzed by XRPD.

Compound: CN(C)CCc1c[nH]c2cccc(OC(=O)CCOCCC(=O)Oc3cccc4[nH]cc(CCN(C)C)c34)c12
- XRPD patterns after slurrying in 12 solvents compared with input material: XRPD patterns consistent with the XRPD pattern of the input material
